In the supplement of paper PMC10307832:

Key:
Assay in all cases: relative viability (nuclei count vs DMSO), 5 days (fraction); higher = more cells survive
[1] = compound: CS(=O)(=O)c1ccc(C(=O)Nc2ccc(Cl)c(-c3ccccn3)c2)c(Cl)c1 [Vismodegib]
Method in brief: (§1)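 On vehicle-anchored 1536-well plates, lung cancer cell lines held overnight at 37 °C were pinned with five library-drug doses (not always all listed) spaced by √10. With no medium change over 5 days, they were then fixed, permeabilised and Hoechst-stained in one step and imaged at 4×. MetaXpress counted nuclei, and viability is the median across plates of treated-well over vehicle-well nuclei. Acceptance needed control CV below 25% and at least one doubling.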

[2] = compound: CS(=O)(=O)c1ccc(-c2cnc(N)c(C(=O)Nc3ccccc3)n2)cc1 [VE-821]
Method in brief: as §1

[3] = compound: N#CC[C@H](C1CCCC1)n1cc(-c2ncnc3[nH]ccc23)cn1 [Ruxolitinib]
Method in brief: as §1

Cell Line | relative viability ([1]; 0.08 µM) | relative viability ([1]; 0.253 µM) | relative viability ([1]; 0.8 µM) | relative viability ([1]; 2.53 µM) | relative viability ([1]; 8 µM) | relative viability ([2]; 0.08 µM) | relative viability ([2]; 0.253 µM) | relative viability ([2]; 0.8 µM) | relative viability ([2]; 2.53 µM) | relative viability ([2]; 8 µM) | relative viability ([3]; 0.08 µM) | relative viability ([3]; 0.253 µM) | relative viability ([3]; 0.8 µM) | relative viability ([3]; 2.53 µM) | relative viability ([3]; 8 µM)
NCI-H1437 | 0.951 | 0.967 | 1.01 | 0.964 | 0.999 | 1.03 | 0.97 | 0.988 | 1.01 | 0.956 | 1.09 | 1.1 | 1.08 | 0.946 | 0.848
NCI-H1563 | 0.944 | 0.931 | 0.954 | 1.04 | 1.02 | 1.01 | 0.985 | 0.81 | 0.886 | 0.762 | 0.985 | 0.99 | 1.02 | 0.853 | 0.879
NCI-H1623 | 0.943 | 1.01 | 1.06 | 0.978 | 1.01 | 1.06 | 0.987 | 0.84 | 1.01 | 0.809 | 0.942 | 0.936 | 1.14 | 1.14 | 1.28
NCI-H1648 | 1 | 0.893 | 0.766 | 0.987 | 0.74 | 1.21 | 0.787 | 0.876 | 0.946 | 0.674 | 0.644 | 1.02 | 1.11 | 1.25 | 1.49
NCI-H1650 | 0.934 | 0.813 | 0.877 | 0.864 | 0.941 | 0.934 | 0.841 | 0.911 | 0.802 | 0.465 | – | 0.958 | 1.29 | 0.812 | 0.787
NCI-H1651 | 0.945 | 0.976 | 0.947 | 0.956 | 1.02 | 0.976 | 0.954 | 0.922 | 0.977 | 0.969 | 0.948 | 0.978 | 0.971 | 0.939 | 0.976
NCI-H1666 | 0.931 | 0.928 | 1 | 0.955 | 1.07 | 1.02 | 0.952 | 1.01 | 1.1 | 0.853 | 1 | 0.987 | 1.07 | 0.884 | 1.1
NCI-H1703 | 0.998 | 0.826 | 1.21 | 0.824 | 1.33 | 1.09 | 0.793 | 0.836 | 0.689 | 0.444 | 0.994 | 0.862 | 0.978 | 0.498 | 0.663
NCI-H1734 | 0.966 | 0.954 | 0.951 | 0.993 | 0.961 | 1.07 | 0.989 | 0.964 | 1.03 | 0.656 | 0.962 | 0.914 | 1.15 | 0.879 | 0.942
NCI-H1755 | 0.983 | 0.982 | 1.01 | 1 | 0.982 | 1.04 | 0.966 | 0.905 | 0.957 | 0.873 | 0.974 | 0.989 | 1.03 | 0.916 | 0.825
NCI-H1792 | 0.854 | 0.877 | 0.941 | 0.928 | 0.922 | 1.26 | 0.817 | 0.842 | 1.37 | 0.824 | 0.871 | 0.761 | 0.856 | 0.822 | 0.561
NCI-H1793 | – | 0.857 | 0.96 | 0.904 | 0.784 | 0.996 | 0.744 | 0.747 | 1.16 | 0.713 | 0.972 | 0.928 | 1.12 | 0.946 | 0.699
NCI-H1915 | 1.02 | 1.01 | 0.957 | 0.983 | 0.907 | 1.07 | 0.949 | 1.02 | 1.05 | 0.755 | 0.983 | 1.03 | 1.07 | 0.901 | 0.85
NCI-H1944 | 1.05 | 1.02 | 0.966 | 0.904 | 1.04 | 1.18 | 0.933 | 0.873 | 1.08 | 0.425 | 1.02 | 0.927 | 0.968 | 0.875 | 0.863
NCI-H1975 | 0.901 | 0.925 | 1.03 | 1.02 | 1.01 | 1.01 | 0.845 | 0.811 | 0.795 | 0.739 | 0.893 | 0.92 | 0.973 | 0.83 | 0.649
NCI-H1993 | 0.807 | 0.916 | 0.859 | 0.875 | 0.87 | 0.92 | 0.844 | 0.916 | 0.929 | 0.692 | 0.872 | 0.774 | 1.04 | 1 | 0.771
NCI-H2009 | 0.982 | 0.977 | 0.976 | 0.964 | 0.992 | 1.03 | 0.961 | 1 | 1.06 | 0.863 | 1.03 | 1.01 | 1.04 | 0.842 | 0.657

Cell Line | relative viability ([1]; 0.08 µM) | relative viability ([1]; 0.253 µM) | relative viability ([1]; 0.8 µM) | relative viability ([1]; 2.53 µM) | relative viability ([1]; 8 µM) | relative viability ([2]; 0.08 µM) | relative viability ([2]; 0.253 µM) | relative viability ([2]; 0.8 µM) | relative viability ([2]; 2.53 µM) | relative viability ([2]; 8 µM) | relative viability ([3]; 0.08 µM) | relative viability ([3]; 0.253 µM) | relative viability ([3]; 0.8 µM) | relative viability ([3]; 2.53 µM) | relative viability ([3]; 8 µM)
NCI-H2023 | 0.925 | 0.892 | 0.95 | 1.06 | 0.98 | 1.1 | 0.874 | 0.672 | 0.494 | 0.172 | 1.03 | 0.835 | 1.18 | 0.9 | 0.988
NCI-H2085 | 0.977 | 0.995 | 0.994 | 0.997 | 0.937 | 1.03 | 0.973 | 0.843 | 1.14 | 0.946 | 1.03 | 1.01 | 1.09 | 0.901 | 0.876
NCI-H2087 | 0.946 | 0.969 | 0.941 | 1.09 | 0.906 | 1.16 | 0.871 | 0.958 | 1.32 | 1.05 | 1.04 | 0.957 | 1.12 | 0.935 | 0.941
NCI-H2126 | 0.994 | 0.962 | 0.949 | 0.968 | 0.927 | 1.02 | 0.924 | 0.966 | 0.96 | 0.729 | 1 | 1.02 | 1.09 | 1.12 | 0.986
NCI-H2170 | 1.03 | 0.959 | 1.01 | 0.955 | 0.993 | 0.972 | 0.932 | 1.01 | 0.966 | 0.642 | 1.05 | 0.975 | 1 | 0.924 | 0.841
NCI-H2228 | 1.07 | 1.13 | 1.04 | 0.889 | 0.89 | 0.938 | 1.03 | 0.806 | 1.27 | 0.728 | 0.764 | 0.964 | 1.3 | 0.809 | 0.737
NCI-H2342 | 0.882 | 1.07 | 0.984 | 0.742 | 0.931 | 1 | 0.957 | 0.939 | 0.998 | 0.807 | 0.981 | 0.827 | 1.09 | 1.02 | 0.964
NCI-H2347 | 0.908 | 0.995 | 0.949 | 0.968 | 1.04 | 1.1 | 0.968 | 1.01 | 1.22 | 1.14 | 0.949 | 0.984 | 1.11 | 1.01 | 0.942
NCI-H2405 | 0.96 | 1.06 | 0.927 | 0.991 | 1.03 | 1.06 | 0.968 | 0.968 | 1.09 | 0.993 | 0.715 | 0.974 | 0.999 | 0.938 | 0.52
NCI-H3122 | 0.962 | 1.01 | 0.904 | 0.973 | 0.92 | 1.02 | 1.01 | 0.982 | 1.01 | 0.933 | 0.986 | 1.03 | 1.01 | 0.868 | 0.915
PC-3 [JPC-3] | 0.977 | 0.999 | 0.986 | 1.02 | 0.986 | 1.03 | 1.07 | 1.07 | 1.06 | 0.971 | 0.818 | 0.941 | 1.02 | 1.03 | 0.908
PC-14 | 0.958 | 0.959 | 0.988 | 0.915 | 0.952 | 1.06 | 0.932 | 0.995 | 0.969 | 0.686 | – | 1.07 | 1.01 | 0.865 | 0.8
RERF-LC-KJ | 1.03 | 0.967 | 1.03 | 0.973 | 1.04 | 0.986 | 0.916 | 0.878 | 0.923 | 0.786 | 0.969 | 0.933 | 1.06 | 1.01 | 0.965
SK-LU-1 | 1 | 0.997 | 1.07 | 0.943 | 1.04 | 1.08 | 1.06 | 0.942 | 0.841 | 0.569 | 1.01 | 1.08 | 1.12 | 0.966 | 0.907
SK-MES-1 | 0.964 | 0.997 | 1.01 | 0.986 | 1.04 | 1.03 | 0.955 | 0.905 | 0.933 | 0.809 | 1.04 | 0.967 | 1.02 | 0.846 | 0.725
SW 900 | 0.982 | 0.879 | 0.737 | 0.655 | 0.93 | 1.01 | 0.793 | 0.763 | 0.748 | 0.537 | 0.991 | 1.02 | 1.03 | 1.02 | 0.896
SW 1573 | 0.969 | 0.931 | 1.05 | 0.959 | 0.985 | 1.1 | 1.04 | 1.02 | 1.06 | 0.788 | 1.02 | 0.929 | 1.14 | 0.865 | 0.85
